# In publication PMC3093627 (Research in Pharmaceutical Sciences, 2010):
# Key:
# [1] = test system: MDCK II cells; details: probenecid 10 μM, d-glucose 5 μM, digoxin 5 μM, M6G 100 μg/ml, cyclosporin 10 μM
# Experimental: Madin-Darby Canine Kidney epithelial cell lines (MDCK-II, passages 3-7), and MDCK I-MDR (MDCK-PGP or MDCK WT, passages)([6]–[10]) were purchased from Borst- Amsterdam. MDCK-PGP is a MDCK-II recombinant clone containing the human MDR-I PGP gene.
# When cell growth and cell number were sufficient, the cells were transferred into the transwells. The number of cells in each well was calculated using Eq. 1
# In 48/case plates, with area of 0.3318 Cm^2for each insert, the required cells per insert were 13,272 cells. This number of cells was dispensed in 0.25 ml media for each insert and the cells suspension was poured into apical chambers of the inserts. Each treatment group comprised 4 replicates. One ml of cell free media was added to basal chambers. […]
# After completing the incubation period, TEER of each Transwell inserts was measured using an EVOM epithelial voltammeter (WIP, Sarasota, FL) and the Transwell inserts were distributed evenly between treatment groups, based on the TEER measurement. […] The corrected cumulative concentrations of drug were determined based on the amount of removed and added buffer in each series of wells at each interval and the corrected concentrations were used for calculating the apparent permeability coefficient (ρ) according to the Eq. 2: […]
# [2] = test system: morphine brain distribution; details: rats; cited from earlier work
SMILES,Effect on morphine permeability via MDCK II cells [1],Reduction of morphine brain distribution [2] [%]
"CN1CC[C@]23c4c5ccc(O)c4O[C@H]2[C@@H](O[C@@H]2O[C@H](C(=O)O)[C@@H](O)[C@H](O)[C@H]2O)C=C[C@H]3[C@H]1C5 [M6G, morphine 6 glucoronide]",no significant effects,–
C[C@H]1O[C@@H](O[C@H]2[C@@H](O)C[C@H](O[C@H]3[C@@H](O)C[C@H](O[C@H]4CC[C@@]5(C)[C@H](CC[C@@H]6[C@@H]5C[C@@H](O)[C@]5(C)[C@@H](C7=CC(=O)OC7)CC[C@]65O)C4)O[C@@H]3C)O[C@@H]2C)C[C@H](O)[C@@H]1O [digoxin],significant fall,–
COc1cc2c(cc1OC)CN(CCc1ccc(NC(=O)c3cccc4c(=O)c5cccc(OC)c5[nH]c34)cc1)CC2 [GF120918],–,42
